Results reported in patent EP1000062B1, “TRICYCLIC VASOPRESSIN AGONISTS” (Wyeth, priority 1997, dated 1999).

Tested on: Vasopressin V2
Test: Vasopressin V2 agonist effects of test compounds in normal conscious water-loaded rats
Format: in vivo
Conditions: Sprague-Dawley (CD) rats, oral 10 mg/kg, urine collected for four hours; for Osmolality (% Increase): change in osmolality as percent of control; for Urine Volume (% decrease): vs. control
Procedure: Vasopressin V2 Agonist Effects of Test Compounds in Normal Conscious Water-Loaded Rats:
On the day of test, rats were placed individually into metabolic cages equipped with devices to separate the feces from the urine and containers for collection of urine. Test compound or reference agent was given at an oral dose of 10 mg/kg in a volume of 10 ml /kg. […] Thirty minutes after dosing the test compound, rats were gavaged with water at 30 ml /kg into the stomach using a feeding needle. During the test, rats were not provided with water or food. Urine was collected for four hours after dosing of the test compound. At the end of four hours, urine volume was measured. […] Determinations of Na^+, K^+ and Cl^- ion were carried out using ion specific electrodes in a Beckman SYNCHRON EL-ISE Electrolyte System analyzer. […] In the screening test, two rats were used for each compound. If the difference in the urine volume of the two rats was greater than 50%, a third rat was used.

| Structure (SMILES) | Osmolality (% Increase) | Urine Volume (% decrease) |
| --- | --- | --- |
| Cc1cnn(-c2ccc(C(=O)N3Cc4cccn4Cc4ccccc43)c(C(F)(F)F)c2)c1 [Example 3, [4-(4-Methyl-pyrazol-1-yl)-2-trifluoromethyl-phenyl]-(5H,11H-pyrrolo[2,1-c][1,4]benzodiazepin-10-yl)-methanone] | 240% | 58% |
| O=C(c1ccc(-n2cccn2)cc1C(F)(F)F)N1Cc2cccn2Cc2ccccc21 [Example 4, (4-Pyrazol-1-yl-2-trifluoromethyl-phenyl)-(5H,11H-pyrrolo[2,1-c][1,4]benzodiazepin-10-yl)-methanone] | 225% | 57% |
| O=C(c1ccc(-n2ccc(C3CC3)n2)cc1C(F)(F)F)N1Cc2cccn2Cc2ccccc21 [Example 5, [4-(3-Cyclopropyl-pyrazol-1-yl)-2-trifluoromethy-phenyl]-(5H,11H-pyrrolo[2,1-c][1,4]benzodiazepin-10-yl)-methanone] | 231% | 56% |
| Cc1cn(-c2ccc(C(=O)N3Cc4cccn4Cc4ccccc43)c(C(F)(F)F)c2)cn1 [Example 6, [4-(4-Methyl-imidazol-1-yl)-2-trifluoromethyl-phenyl]-(5H,11H-pyrrolo[2,1-c][1,4]benzodiazepin-10-yl)-methanone] | 270% | 58% |
| O=C(c1ccc(-n2cncn2)cc1C(F)(F)F)N1Cc2cccn2Cc2ccccc21 [Example 7, (5H,11H-Pyrrolo[2,1-c][1,4]benzodiazepin-10-yl)-(4-[1,2,4]triazol-1-yl-2-trifluoromethylphenyl)-methanone] | 137% | 13% |
| Cc1ccn(-c2ccc(C(=O)N3Cc4cccn4Cc4ccccc43)c(Cl)c2)n1 [Example 9A] | 325% | 70% |
| Cc1ccnn1-c1ccc(C(=O)N2Cc3cccn3Cc3ccccc32)c(Cl)c1 [Example 9B] | 168% | 21% |
| Cc1cnn(-c2ccc(C(=O)N3Cc4cccn4Cc4ccccc43)c(Cl)c2)c1 [Example 11] | 285% | 70% |
| Cc1cn(-c2ccc(C(=O)N3Cc4cccn4Cc4ccccc43)c(Cl)c2)cn1 [Example 12, [2-Chloro-4-(4-methyl-imidazol-1-yl)-phenyl]-(5H,11H-pyrrolo[2,1-c][1,4]benzodiazepin-10-yl)-methanone] | 330% | 69% |
| O=C(c1ccc(-n2ccc(C(F)(F)F)n2)cc1Cl)N1Cc2cccn2Cc2ccccc21 [Example 13, [2-Chloro-4-(3-trifluoromethyl-pyrazol-1-yl)-phenyl]-(5H,11H-pyrrolo[2,1-c][1,4]benzodiazepin-10-yl)-methanone] | 229% | 50% |
| O=C(c1ccc(-n2cncn2)cc1Cl)N1Cc2cccn2Cc2ccccc21 [Example 14, [2-Chloro-4-(1,2,4-triazol-1-yl)-phenyl]-(5H,11H-pyrrolo[2,1-c][1,4]benzodiazepin-10-yl)-methanone] | 406% | 86% |
| O=C(c1ccc(-n2cccc2)cc1Cl)N1Cc2cccn2Cc2ccccc21 [Example 15, (2-Chloro-4-pyrrol-1-yl-phenyl)-(5H,11H-pyrrolo[2,1-c][1,4]benzodiazepin-10-yl)-methanone] | 38% | 47% |
| O=C(c1ccc(-n2cccn2)cc1Cl)N1Cc2cccn2Cc2ccccc21 [Example 16, (2-Chloro-4-pyrazol-1-yl-phenyl)(5H,11H-Pyrrolo[2,1-c][1,4]benzodiazepin-10-yl)-methanone] | 400% | 88% |
| Cc1ccn(-c2ccc(C(=O)N3Cc4ccc(C)n4Cc4ccccc43)c(Cl)c2)n1 [Example 18, [2-Chloro-4-(3-methylpyrazol-1-yl)-phenyl]-(3-methyl-5H,11H-pyrrolo[2,1-c][1,4]benzodiazepin-10-yl)-methanone] | 214% | 52% |
| Cc1cnn(-c2ncc(C(=O)N3Cc4cccn4Cc4ccccc43)c(C(F)(F)F)n2)c1 [Example 21, [2-(4-Methyl-pyrazol-1-yl)-4-trifluoromethyl-pyrimidin-5-yl]-(5H,11H-pyrrolo[2,1-c][1,4]benzodiazepin-10-yl)-methanone] | 181% | 49% |
| CC(=O)c1ccc(C(=O)N2Cc3cccn3Cc3ccccc32)cc1 [Example 22, 1-[4-(5H,11H-Pyrrolo[2,1-c][1,4]benzodiazepine-10-carbonyl)-phenyl]-ethanone] | 322% | 80% |
| O=C(c1ccc(-c2cc[nH]n2)cc1)N1Cc2cccn2Cc2ccccc21 [Example 24, [4-(1H-Pyrazol-3-yl)-phenyl]-(5H,11H-pyrrolo[2,1-c][1,4]benzodiazepin-10-yl)-methanone] | 159% | 47% |
| Cn1ccc(-c2ccc(C(=O)N3Cc4cccn4Cc4ccccc43)cc2)n1 [Example 25, [4-(1-Methyl-1H-pyrazolyl-3-yl)-phenyl]-(5H,11H-pyrrolo[2,1-c][1,4]-benzodiazepin-10-yl)-methanone] | 979% | 87% |
| CCn1ccc(-c2ccc(C(=O)N3Cc4cccn4Cc4ccccc43)cc2)n1 [Example 26, [4-(1-Ethyl-1H-pyrazol-3-yl)-phenyl]-(5H,11H-pyrrolo[2,1-c][1,4]-benzodiazepin-10-yl)-methanone] | 279% | 54% |
| CCCn1ccc(-c2ccc(C(=O)N3Cc4cccn4Cc4ccccc43)cc2)n1 [Example 27, [4-(1-Propyl-1H-pyrazol-3-yl)-phenyl]-(5H,11H-pyrrolo[2,1-c][1,4]-benzodiazepin-10-yl)-methanone] | 183% | 76% |
| CCCCn1ccc(-c2ccc(C(=O)N3Cc4cccn4Cc4ccccc43)cc2)n1 [Example 28, [4-(1-Butyl-1H-pyrazol-3-yl)-phenyl]-(5H,11H-pyrrolo[2,1-c][1,4]-benzodiazepin-10-yl)-methanone] | 37% | 75% |
| COCn1ccc(-c2ccc(C(=O)N3Cc4cccn4Cc4ccccc43)cc2)n1 [Example 29, [4-(1-methoxymethyl-1H-pyrazol-3-yl)-phenyl]-(5H,11H-pyrrolo[2,1-c][1,4]-benzodiazepin-10-yl)-methanone] | 305% | 66% |
| CCC(=O)n1ccc(-c2ccc(C(=O)N3Cc4cccn4Cc4ccccc43)cc2)n1 [Example 31, 1-{3-[4-(5H,11H-Pyrrolo[2,1-c][1,4]benzodiazepine-10-carbonyl)-phenyl]-pyrazol-1-yl}-propan-1-one] | 298% | 72% |
| O=C(c1ccc(-c2ccn(C(=O)C3CC3)n2)cc1)N1Cc2cccn2Cc2ccccc21 [Example 32, [4-(1-Cyclopropanecarbonyl-1H-pyrazol-3-yl)-phenyl]-(5H,11H-pyrrolo[2,1-c][1,4]benzodiazepin-10-yl)-methanone] | 373% | 77% |
